Among the data in US10221179B2, “Substituted pyrazoloquinazolinones and pyrroloquinazolinones as allosteric modulators of group II metabotropic glutamate receptors” (DOMAIN THERAPEUTICS, priority 2014, dated 2019) are IC50 and melting point values, retold here.

For one data set, the target named is T1, human mGluR3 (hmGluR3) (Homo sapiens, UniProt Q14832).
T1 construct: expressed in transfected cells; host or cells: HEK-293 cells, transient co-transfection by electroporation
As to the kind of experiment: Ca++ functional assay, human mGluR3 transiently over-expressed in HEK-293 cells (agonist and negative allosteric modulator modes). Conditions: glutamate at EC80, intracellular calcium (Fluo4AM). The data set is classed as cell-based. The method, then: Example 127: Human mGluR2 and mGluR3 Evaluation Using Ca^++ Functional Assay
Examples of the present invention were tested successively for their agonist and negative allosteric modulator activities on human mGluR2 (hmGluR2) and mGluR3 (hmGluR3) transiently over-expressed in HEK-293 cells. Compounds exert agonist activity if, by themselves in absence of glutamate, they are able to activate hmGluR2 or hmGluR3; and they exert negative allosteric modulator activity if they decrease the action of glutamate (which is employed at its EC80 concentration).
Cell Culture and Transfection […]
Receptor activity is detected by changes in intracellular calcium measured using the fluorescent Ca^2+ sensitive dye, Fluo4AM (Molecular Probes).
On the day of the assay, culture medium is aspirated and replaced during 3 hours by medium without serum supplemented with 1% Glutamax, 1% Penicillin/Streptomycin and 1% non-essential amino acids. […] Addition of compounds and intracellular Ca^2+ measurements (excitation 485 nm, emission 525 nm) are performed by the fluorescence microplate reader FLIPRTetra (Molecular Devices).
Agonist and negative allosteric modulator activities of compounds are consecutively evaluated on the same cell plate. […] Then, cells are stimulated by an EC80 glutamate concentration and fluorescence is recorded for additional 3 minutes. […]
(In general: Calcium flux is commonly read through the fluorescence of an indicator in the cells.)

A further data set concerns the target T2, human mGluR2 (hmGluR2) (Homo sapiens, UniProt Q14416).
T2 construct: expressed in transfected cells; host or cells: HEK-293 cells, transient co-transfection by electroporation
As to the kind of experiment: Ca++ functional assay, human mGluR2 transiently over-expressed in HEK-293 cells (agonist and negative allosteric modulator modes). The data set is classed as cell-based. To be noted: glutamate at EC80, intracellular calcium (Fluo4AM). In a few lines:
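HEK-293 cells transiently co-transfected with hmGluR2, a chimeric G protein and two glutamate transporters; Fluo4-AM calcium fluorescence (485/525 nm) on FLIPR. Agonist mode judged against buffer, NAM mode against EC80 glutamate, 3 min recording; 20-concentration curves over 6 logs, variable-slope fit for IC50, duplicate, two independent runs.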

Setting [1] is: read-out: IC50 for human mGluR2 (negative allosteric modulator activity).
The mark [2] stands for this setting: read-out: hmGluR2 negative allosteric modulator activity IC50.

Where two headings read alike, the source gives them in different places.

T2 sequence (Q14416 19-872): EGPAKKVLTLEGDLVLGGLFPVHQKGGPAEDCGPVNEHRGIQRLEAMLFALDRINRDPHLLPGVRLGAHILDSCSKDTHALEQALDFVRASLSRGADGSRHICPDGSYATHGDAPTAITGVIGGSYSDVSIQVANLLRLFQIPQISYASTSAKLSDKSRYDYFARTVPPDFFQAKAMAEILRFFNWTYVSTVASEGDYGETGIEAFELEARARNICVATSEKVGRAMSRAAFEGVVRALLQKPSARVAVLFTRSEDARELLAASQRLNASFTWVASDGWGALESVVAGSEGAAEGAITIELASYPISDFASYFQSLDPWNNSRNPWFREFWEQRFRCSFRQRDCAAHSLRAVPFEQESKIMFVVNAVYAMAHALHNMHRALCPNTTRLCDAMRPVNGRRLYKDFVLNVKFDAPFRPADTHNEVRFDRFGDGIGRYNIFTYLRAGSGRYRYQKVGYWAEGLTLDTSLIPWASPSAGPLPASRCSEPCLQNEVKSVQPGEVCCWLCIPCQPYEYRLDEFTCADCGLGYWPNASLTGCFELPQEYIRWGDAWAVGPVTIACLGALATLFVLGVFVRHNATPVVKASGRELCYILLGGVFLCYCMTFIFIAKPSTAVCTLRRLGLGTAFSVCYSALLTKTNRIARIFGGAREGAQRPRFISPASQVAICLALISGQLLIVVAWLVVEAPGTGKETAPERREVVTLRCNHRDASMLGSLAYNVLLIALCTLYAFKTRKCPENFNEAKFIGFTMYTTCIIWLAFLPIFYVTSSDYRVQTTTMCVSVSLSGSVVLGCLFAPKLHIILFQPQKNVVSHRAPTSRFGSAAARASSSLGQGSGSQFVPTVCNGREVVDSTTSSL
T1 sequence (Q14832 23-879): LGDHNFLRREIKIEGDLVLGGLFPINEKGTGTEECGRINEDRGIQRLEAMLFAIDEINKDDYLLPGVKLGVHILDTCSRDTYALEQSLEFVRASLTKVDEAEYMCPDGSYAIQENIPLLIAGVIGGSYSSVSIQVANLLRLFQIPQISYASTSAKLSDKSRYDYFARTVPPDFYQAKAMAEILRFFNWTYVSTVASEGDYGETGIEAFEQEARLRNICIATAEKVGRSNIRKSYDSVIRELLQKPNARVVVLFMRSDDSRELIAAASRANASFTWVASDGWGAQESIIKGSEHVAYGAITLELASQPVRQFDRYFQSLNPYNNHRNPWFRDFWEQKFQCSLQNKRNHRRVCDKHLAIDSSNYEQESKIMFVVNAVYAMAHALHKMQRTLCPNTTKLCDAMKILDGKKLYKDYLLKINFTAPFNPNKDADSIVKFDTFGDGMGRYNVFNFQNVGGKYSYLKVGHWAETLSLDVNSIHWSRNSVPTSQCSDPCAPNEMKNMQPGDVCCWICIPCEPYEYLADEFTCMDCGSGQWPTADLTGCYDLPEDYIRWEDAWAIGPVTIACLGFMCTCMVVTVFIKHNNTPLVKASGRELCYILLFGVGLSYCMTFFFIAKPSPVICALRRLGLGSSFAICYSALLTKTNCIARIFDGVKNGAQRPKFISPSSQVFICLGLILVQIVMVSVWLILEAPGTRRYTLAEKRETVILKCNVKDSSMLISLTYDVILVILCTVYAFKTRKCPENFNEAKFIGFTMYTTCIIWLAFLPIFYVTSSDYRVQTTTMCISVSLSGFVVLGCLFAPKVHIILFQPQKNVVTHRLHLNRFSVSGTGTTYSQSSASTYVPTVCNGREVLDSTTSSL

Regarding `Cn1c(=O)c2ccccc2n2nc(-c3ccnc(Cl)c3)cc12` [Example 1, 2-(2-Chloro-pyridin-4-yl)-4-methyl-4H-pyrazolo[1,5-a]quinazolin-5-one], the values for the IC50 at human mGluR3 (hmGluR3), at human mGluR2 (hmGluR2) (setting [1]) and on human mGluR2 (hmGluR2) (setting [2]) were above 1000 nM, below 100 nM and below 1000 nM, respectively.
For `C=Cc1cc(-c2cc3n(C)c(=O)c4ccccc4n3n2)ccn1` [Example 9, 4-Methyl-2-(2-vinyl-pyridin-4-yl)-4H-pyrazolo[1,5-a]quinazolin-5-one] the same measures were above 1000 nM, below 100 nM and below 1000 nM.
Regarding `Cn1c(=O)c2ccc(C(=O)N3CC(O)C3)cc2n2nc(-c3ccnc(C(F)(F)F)c3)cc12` [Example 110, 8-(3-Hydroxy-azetidine-1-carbonyl)-4-methyl-2-(2-trifluoromethyl-pyridin-4-yl)-4H-pyrazolo[1,5-a]quinazolin-5-one], the melting point (in general, the temperature, or range, at which the solid turns liquid) was above 250 °C. Further, the IC50 (in general, the midpoint of a concentration-inhibition curve) at human mGluR2 (hmGluR2) (setting [2]) is below 1000 nM.
Regarding `Cn1c(=O)c2ccc(N3CCC(O)CC3)cc2n2nc(-c3ccnc(C4CC4)c3)cc12` [Example 113, 2-(2-Cyclopropyl-pyridin-4-yl)-8-(4-hydroxy-piperidin-1-yl)-4-methyl-4H-pyrazolo[1,5-a]quinazolin-5-one], the melting point was in the range of 221 to 233 °C. The IC50 at human mGluR2 (hmGluR2) (setting [2]) is below 1000 nM.
In the same order, the values of `Cn1c(=O)c2ccc(F)cc2n2nc(-c3ccnc(C(F)F)c3)cc12` [Example 114, 2-(2-Difluoromethyl-pyridin-4-yl)-8-fluoro-4-methyl-4H-pyrazolo[1,5-a]quinazolin-5-one] are 220 to 226 °C and below 1000 nM.
For `Cn1c(=O)c2ccc(N3CCC(O)CC3)cc2n2nc(-c3ccnc(C(F)F)c3)cc12` [Example 115, 2-(2-Difluoromethyl-pyridin-4-yl)-8-(4-hydroxy-piperidin-1-yl)-4-methyl-4H-pyrazolo[1,5-a]quinazolin-5-one] the same measures were above 250 °C and below 1000 nM.
In the same order, the values of `Cn1c(=O)c2ccc(F)cc2n2nc(-c3ccnc(C4CCC4)c3)cc12` [Example 116, 2-(2-Cyclobutyl-pyridin-4-yl)-8-fluoro-4-methyl-4H-pyrazolo[1,5-a]quinazolin-5-one] are 210 to 220 °C and below 1000 nM.
In turn, `Cn1c(=O)c2cc(F)c(N3CC(O)C3)cc2n2nc(-c3ccnc(C(F)(F)F)c3)cc12` [Example 119, 7-Fluoro-8-(3-hydroxy-azetidin-1-yl)-4-methyl-2-(2-trifluoromethyl-pyridin-4-yl)-4H-pyrazolo[1,5-a]quinazolin-5-one] registered a melting point above 250 °C. Further, the IC50 on human mGluR2 (hmGluR2) (setting [2]) is below 1000 nM.
For `Cn1c(=O)c2cc(F)c(OC3COC3)cc2n2nc(-c3ccnc(C(F)(F)F)c3)cc12` [Example 120, 7-Fluoro-4-methyl-8-(oxetan-3-yloxy)-2-(2-trifluoromethyl-pyridin-4-yl)-4H-pyrazolo[1,5-a]quinazolin-5-one] the same measures were above 250 °C and below 1000 nM.
In the same order, the values of `Cn1c(=O)c2cc(F)c(NCCC#N)cc2n2nc(-c3ccnc(C(F)(F)F)c3)cc12` [Example 121, 3-[7-Fluoro-4-methyl-5-oxo-2-(2-trifluoromethyl-pyridin-4-yl)-4,5-dihydro-pyrazolo[1,5-a]quinazolin-8-ylamino]-propionitrile] are above 250 °C and below 1000 nM.
In the same order, the values of `Cn1c(=O)c2cc(F)c(N3CCCC3CO)cc2n2nc(-c3ccnc(C(F)(F)F)c3)cc12` (centres unmarked) [Example 122, 7-Fluoro-8-(2-hydroxymethyl-pyrrolidin-1-yl)-4-methyl-2-(2-trifluoromethyl-pyridin-4-yl)-4H-pyrazolo[1,5-a]quinazolin-5-one] are above 250 °C and below 1000 nM.
As to `CC1CN(c2ccc3c(=O)n(C)c4cc(-c5ccnc(C(F)(F)F)c5)nn4c3c2)CC(C)O1` (centres unmarked) [Example 125, 8-(2,6-Dimethyl-morpholin-4-yl)-4-methyl-2-(2-trifluoromethyl-pyridin-4-yl)-4H-pyrazolo[1,5-a]quinazolin-5-one], the melting point is above 250 °C. Besides, on human mGluR2 (hmGluR2) (setting [2]), the IC50 is below 1000 nM.
